From ChEMBL document CHEMBL1155115 (J Med Chem, 2008)
pIC50: −log10 of the molar value.

Key:
Dictyostelium discoideum = experiment: Antimicrobial activity against Dictyostelium discoideum; format: functional, organism-based
[1] = target: T1, Farnesyl pyrophosphate synthase (Homo sapiens) (UniProt P14324); experiment: Inhibition of farnesyl diphosphate synthase at 35 nM
T1 sequence (whole entry): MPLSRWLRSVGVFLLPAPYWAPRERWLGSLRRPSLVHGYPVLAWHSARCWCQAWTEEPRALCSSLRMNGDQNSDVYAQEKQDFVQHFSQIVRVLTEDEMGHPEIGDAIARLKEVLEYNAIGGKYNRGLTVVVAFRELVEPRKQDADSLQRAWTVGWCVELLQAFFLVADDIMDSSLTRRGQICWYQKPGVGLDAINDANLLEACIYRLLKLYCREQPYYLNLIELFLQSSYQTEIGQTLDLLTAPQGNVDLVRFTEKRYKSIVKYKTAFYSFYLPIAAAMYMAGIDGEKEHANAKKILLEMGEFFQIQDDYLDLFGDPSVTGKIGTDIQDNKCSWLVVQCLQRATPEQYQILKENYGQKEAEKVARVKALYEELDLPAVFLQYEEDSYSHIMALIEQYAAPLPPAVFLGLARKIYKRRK

[2] = target: T1, Farnesyl pyrophosphate synthase (Homo sapiens); experiment: Inhibition of farnesyl diphosphate synthase at 30 nM

Row | pIC50 (Dictyostelium discoideum) | inhibition [1] [%] | inhibition [2] [%] | SMILES
1 | 4.74 | – | – | Nc1ccccc1CC(O)(P(=O)(O)O)P(=O)(O)O
2 | > 3.62 | – | – | O=P(O)(O)C(O)(Cc1ccccc1)P(=O)(O)O
3 | 4.57 | 59 | – | CC[n+]1cccc(CC(P(=O)([O-])O)P(=O)(O)O)c1 (stereo unspecified)
4 | 4.52 | – | 58 | O=P(O)(O)C(O)(CC1CCCNC1)P(=O)(O)O (stereo unspecified)
